Where a name gives a salt, the structure may show the parent alone. Read-outs that look alike come from different tables or passages of the source. One block for each compound: values may come before it.
Tests used:
[1] = Solubility of dorzolamide suspension formulation, Example A; type: physicochemical; settings: aqueous buffer, thermodynamic from solid; PBS+0.02% sodium azide, pH 7.4, 37C; read-out: dissolved concentration (i.e., solubility)
[2] = Diffusion coefficient in water (literature value / estimate by MW scaling); type: physicochemical; settings: estimated, at 37C
Description: If the reservoir solution is aqueous or has a viscosity similar to water, the value for the diffusion coefficient of the therapeutic agent (TA) in water at the temperature of interest may be used. […] (Molokhia et al, Exp Eye Res 2008): DTA,37C=DBSA,20C(η20C/η37C)(MWBSA/MWTA)^1/3 where
MW refers to the molecular weight of either BSA or the test compound and η is the viscosity of water.
Small molecules have a diffusion coefficient similar to fluorescein (MW=330, D=4.8 to 6 e-6 cm^2/s from Stay, M S et al. Pharm Res 2003, 20(1), pp. 96-102). For example, the small molecule may comprise a glucocorticoid such as triamcinolone acetonide having a molecular weight of about 435.
(§1) The volume of the device was approximately 25 uL.
as §1

[3] = rabbit and monkey (Gaudreault et al), cited from earlier work
[4] = cited from earlier work
[5] = tested on: laser photocoagulation treatment-induced Grade IV choroidal neovascularization (CNV) Lesions; settings: intravitreal injection, all doses tested (Z. Yao et al., ARVO 2009); cited from earlier work

solubility [1]: 9000 µg/mL
Compound: CCN[C@H]1C[C@H](C)S(=O)(=O)c2sc(S(N)(=O)=O)cc21 [Dorzolamide, dorzolamide Hydrochloride]

diffusion coefficient [2]: 6×10^−6 cm^2/s
Compound: O=C(c1ccccc1)c1ccc2n1CCC2C(=O)O (centres unmarked) [Ketorolac, Ketorolac Tromethamine]

diffusion coefficient [2]: 5×10^−6 cm^2/s
Compound: CN(Cc1cnc2nc(N)nc(N)c2n1)c1ccc(C(=O)N[C@@H](CCC(=O)O)C(=O)O)cc1 [Methotrexate, methotrexate]

Compound: ranibizumab [Lucentis]
half-life in vitreous [3]: about two to four days | half-life in vitreous ([3]; listed as ranibizumab): approximately 3 days | half-life in vitreous ([4]; human eye (Lucentis package insert)): ~220 h | Half-life ([4]; human vitreous, model parameter for FIGS. 119 to 124): 220 h | development of Grade IV CNV lesions [5]: completely inhibit

From US10166142B2, “Small molecule delivery with implantable therapeutic device” (ForSight Vision4, Inc., priority 2011, dated 2019)
